# Measurements reported in US20190247373A1, “METHODS FOR TREATING FIBROSIS” (CHILDREN'S HOSPITAL MEDICAL CENTER, priority 2016, published 2019).
# Columns and labels:
# mice = experiment: Mouse model of bleomycin-induced pulmonary fibrosis (repetitive intradermal bleomycin); format: in vivo; details: bleomycin 6 units per kg intradermally, 5 days a week for 4 wks; vs saline-treated controls
# Text: FIG. 5: Mouse model of bleomycin-induced pulmonary fibrosis. Masson's trichrome-stained lung sections show extensive collagen deposition in mice treated intradermally with bleomycin (6 U/kg body weight; 5 days/week for 4 weeks) (B) compared to saline (A).
# We developed an alternative mouse model of bleomycin-induced pulmonary fibrosis. For these experiments, we injected mice (N=5 mice/group) intradermally with bleomycin (6 units per kg body weight) for 5 days in a week for a total of 4 wks.
# [1] = treatment of idiopathic pulmonary fibrosis; cited from earlier work
# TGFα mice [2] = experiment: Naltrexone therapy in TGFα-induced pulmonary fibrosis: body weight, lung weight, lung function (FlexiVent); format: in vivo; details: 80 mg/kg b.i.d. for three weeks, started after three weeks on Dox, vs vehicle
# Procedure: (§1) FIG. 7: Naltrexone therapy attenuates body weight loss in pulmonary fibrosis. (A) Experimental schemata of naltrexone therapy study in vivo. Three groups of mice on Dox for three weeks were treated with either vehicle or naltrexone (80 mg/kg bodyweight, b.i.d) and then sacrificed after three weeks of treatment while continued on Dox. (B) The loss of body weight was attenuated with naltrexone therapy compared to vehicle treatment in TGFα mice. One-Way ANOVA (N=4−6/group; *P<0.05).
# as §1, with “8:” for “7:”, “increase in lung weights” for “body weight loss”, “fibrosis.” for “fibrosis. (A) Experimental schemata of naltrexone therapy study in vivo.”, “Dox.” for “Dox. (B)”, “increase in lung weights” for “loss of body weight”
# FIG. 9: Naltrexone therapy attenuates lung function decline in pulmonary fibrosis. Three groups of mice on Dox for three weeks were treated with either vehicle or naltrexone (80 mg/kg bodyweight, b.i.d) and then sacrificed after three weeks of treatment while continued on Dox. Decrease in the lung function (A,
# Resistance; B, Compliance; C, Elastance) was attenuated with naltrexone therapy compared to vehicle treatment in TGFα mice. One-Way ANOVA (N=4−6/group; *P<0.05).
# (§2) To probe mechanisms of EGFR-mediated lung remodeling, we generated transgenic mice in which TGFα was conditionally overexpressed in the lung epithelium using the CCSP rtTA promoter. When doxycycline (Dox) was administered, overexpression of TGFα in the adult mice (N=4−5 mice/group) caused progressive and extensive adventitial, interstitial, and subpleural fibrosis. Several histological features of fibrosis in the TGFα model were found in the pathologic lesions of IPF, including subpleural fibrosis radiating into the adjoining interstitium and the differentiation of myofibroblasts (FIG. 3). Physiologically, the mice developed progressive cachexia and lung-function decline with gene expression profiles similar to human IPF. The proenkephalin A (PENK) gene that codes for several opioid peptides was elevated in fibrotic lungs during TGFα-induced pulmonary fibrosis (FIG. 4).
# Naltrexone therapy attenuates body weight loss in pulmonary fibrosis. […] Three groups of mice (N=4−6 mice/group) were on Dox for three weeks, and were then treated with either vehicle or naltrexone (80 mg/kg bodyweight, b.i.d) along with Dox for another three weeks; six weeks after being on DOX and three weeks after being treated with vehicle or naltrexone, the mice were sacrificed. The down arrow represents initiation of the vehicle or naltrexone treatment and the horizontal arrows indicate the duration of the vehicle or naltrexone treatment (three weeks while continuing to administer Dox).
# Naltrexone therapy attenuates increase in lung weights in pulmonary fibrosis. Mice (N=4−6 mice/group) were on Dox for three weeks, and were then treated with either vehicle or naltrexone (80 mg/kg bodyweight, b.i.d) along with Dox for another three weeks; six weeks after being on DOX and three weeks after being treated with vehicle or naltrexone, the mice were sacrificed (See, e.g., FIG. 7A). […] In TGFα mice, increases in lung weight are due to pulmonary fibrosis.
# Naltrexone therapy attenuates lung function decline in pulmonary fibrosis. […]
# TGFα mice [3] = experiment: Short-term naltrexone therapy in TGFα-induced pulmonary fibrosis: total lung RNA gene expression; format: in vivo; details: 10 mg/kg or 50 mg/kg b.i.d. for one week, started after two weeks on Dox; vs vehicle
# Procedure: FIG. 6: Naltrexone therapy attenuates ECM and proliferative gene expression in pulmonary fibrosis. (A) Experimental schemata of naltrexone therapy study in vivo. Three groups of mice on Dox for two weeks were treated with either vehicle or naltrexone (10 mg/kg or 50mg/kg bodyweight, b.i.d) and sacrificed after a week of treatment while continued on Dox. Total lung RNA was analyzed for the expression of: (B) ECM genes (FN1, Col5α, and Col6α) and (C) proliferation genes (Aurka, IL-6, and Calcb). One-Way ANOVA (N=4/group; *P<0.05).
# as §2
# Naltrexone therapy attenuates ECM and proliferative gene expression in pulmonary fibrosis. […] Three groups of mice (N=4 mice/group) on Dox for two weeks were treated with either vehicle or naltrexone (10 mg/kg or 50 mg/kg bodyweight, b.i.d) and sacrificed after a week of treatment while continued on Dox. The down arrow represents initiation of the vehicle or drug treatment (at two weeks on Dox) and the horizontal arrows indicate the duration of vehicle or drug treatment (one week while continuing to administer Dox). […] The RNA from the three ECM genes decreased when treated with naltrexone. […] The RNA from the three proliferation genes decreased when treated with naltrexone.
# IPF fibroblasts = experiment: Gene expression in primary fibroblasts isolated from fibrotic lesions of IPF lungs; format: cell-based, human; details: naltrexone 10 μM, 24 hrs, vs vehicle
# Procedure: FIG. 10: Naltrexone treatment attenuates ECM and proliferation gene expression in IPF fibroblasts. Expression of ECM genes (FN1, Col3α, and αSMA) and proliferation gene (Aurka) was attenuated in IPF fibroblasts treated with naltrexone (10 μM) compared to vehicle treatment for 24 hrs in IPF fibroblasts. Unpaired t-test (N=3/group; *P<0.05).
# We treated primary fibroblasts isolated from fibrotic lesions of IPF lungs. […] These findings are consistent with a mechanism of action for opioid receptor inhibitors (e.g., naltrexone) that influences (e.g., decreases) ECM and proliferation.
molecule,measurement,setting,value
bleomycin,Increase in airway resistance,mice,greater than two-fold
same,Increase in lung hydroxyproline levels,mice,greater than two-fold
COC(=O)c1ccc2c(c1)NC(=O)/C2=C(\Nc1ccc(N(C)C(=O)CN2CCN(C)CC2)cc1)c1ccccc1 [nintedanib],Effect on mortality,[1],neither pirfenidone nor nintedanib had any effect
"O=C1CC[C@@]2(O)[C@H]3Cc4ccc(O)c5c4[C@@]2(CCN3CC2CC2)[C@H]1O5 [naltrexone, 17-(cyclopropylmethyl)-4,5α-epoxy-3,14-dihydroxymorphinan-6-one]",Dox-induced changes in lung function: Compliance,TGFα mice [2]; FlexiVent,reversed
same,Dox-induced changes in lung function: Elastance,TGFα mice [2]; FlexiVent,reversed
same,Dox-induced changes in lung function: Resistance,TGFα mice [2]; FlexiVent,reversed
same,Increase in lung weights,TGFα mice [2],attenuated
same,Loss of body weight,TGFα mice [2],attenuated
same,Total lung RNA expression of ECM gene Collagen alpha 1 V (Col5α),TGFα mice [3],decreased
same,Total lung RNA expression of ECM gene Collagen alpha 1 VI (Col6α),TGFα mice [3],decreased
same,Total lung RNA expression of ECM gene Fibronectin (FN1),TGFα mice [3],decreased
same,Total lung RNA expression of proliferation gene Aurora kinase A (Aurka),TGFα mice [3],decreased
same,Total lung RNA expression of proliferation gene Calcitonin Related Polypeptide Beta (Calcb),TGFα mice [3],decreased
same,Total lung RNA expression of proliferation gene Interleuken 6 (IL-6),TGFα mice [3],decreased
same,Expression of ECM gene alpha smooth-muscle actin (αSMA),IPF fibroblasts,inhibited
same,Expression of ECM gene fibronectin 1 (FN1),IPF fibroblasts,inhibited
same,Expression of ECM gene procollagen 3α1 (Col3α),IPF fibroblasts,inhibited
same,Expression of proliferation gene Aurora kinase A (AURKA),IPF fibroblasts,inhibited
Cc1ccc(=O)n(-c2ccccc2)c1 [pirfenidone],Effect on mortality,[1],neither pirfenidone nor nintedanib had any effect
same,Effect on respiratory symptoms,[1],no effect
